Structures can show the parent of a compound that is named as a salt.

This assay deals with T1, NHE1 (Homo sapiens, UniProt P19634).
T1 construct: expressed in transfected cells
T1 sequence (P19634 whole entry, species assumed): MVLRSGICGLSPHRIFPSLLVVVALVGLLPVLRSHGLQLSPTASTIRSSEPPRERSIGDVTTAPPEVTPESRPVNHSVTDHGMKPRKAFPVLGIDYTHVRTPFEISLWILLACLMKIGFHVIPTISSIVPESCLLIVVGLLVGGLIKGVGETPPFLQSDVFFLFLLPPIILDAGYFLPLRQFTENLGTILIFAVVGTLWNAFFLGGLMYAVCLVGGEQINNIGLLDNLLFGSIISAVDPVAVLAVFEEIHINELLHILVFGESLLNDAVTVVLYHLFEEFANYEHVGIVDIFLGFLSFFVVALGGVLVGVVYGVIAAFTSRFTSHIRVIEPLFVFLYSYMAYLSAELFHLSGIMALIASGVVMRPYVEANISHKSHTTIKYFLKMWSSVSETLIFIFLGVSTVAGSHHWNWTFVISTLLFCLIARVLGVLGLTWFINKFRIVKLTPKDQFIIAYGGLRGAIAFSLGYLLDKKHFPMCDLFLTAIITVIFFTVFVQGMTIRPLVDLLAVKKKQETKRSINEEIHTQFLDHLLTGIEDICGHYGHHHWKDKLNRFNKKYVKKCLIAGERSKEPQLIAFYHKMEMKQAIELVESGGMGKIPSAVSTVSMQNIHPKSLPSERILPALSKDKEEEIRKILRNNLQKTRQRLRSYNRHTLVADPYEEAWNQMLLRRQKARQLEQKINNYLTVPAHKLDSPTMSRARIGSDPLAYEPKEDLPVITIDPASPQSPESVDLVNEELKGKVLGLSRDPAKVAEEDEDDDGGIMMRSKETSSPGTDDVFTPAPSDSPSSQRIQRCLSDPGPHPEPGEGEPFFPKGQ
In words: NHE inhibition FLIPR test (intracellular pH recovery, BCECF) in transfected LAP-1 cells. The class given is cell-based. The conditions noted are these: transfected cell line (parental LAP-1) expressing the NHE-1 subtype, pHi recovery after acidification. How it is done: The NHE inhibitory activities (IC50 values) of the compounds according to the invention were determined by a FLIPR test.
The test is performed in the FLIPR (Fluorescent Imaging Plate Reader) equipped with clear-bottomed and black-walled 96-well microtitration plates.
The growth medium for the transfected cells (Iscove +10% foetal calf serum) also comprises G418 as selection antibiotic to ensure the presence of transfected sequences.
The actual test begins by eliminating the growth medium and adding 100 μl of loading buffer per well (5 μM of BCECF-AM [2′,7′-bis(2-carboxyethyl)-5-(6)-carboxyfluoresceine acetoxymethyl ester] in 20 mM of NH4Cl, 115 mM of choline chloride, 1 mM of CaCl2, 5 mM of KCl, 20 mM of HEPES and 5 mM of glucose; pH 7.4 (adjusted with KOH). The cells are then incubated for 20 minutes at 37° C. This incubation results in the loading of the fluorescent dye into the cells, the fluorescence intensity of which depends on the pHi, and on the NH4Cl, which results in a slight basification of the cells.
The precursor BCECF-AM, a non-fluorescent dye, is, as an ester, capable of crossing the membrane. The actual dye, which is incapable of crossing the membrane, is released inside the cell by esterases.
After this 20-minute incubation, the loading buffer, which comprises NH4Cl and free BCECF-AM, is removed by washing three times in the cell washing device (Tecan Columbus), each wash being performed with 400 μl of washing buffer (133.8 mM of choline chloride, 4.7 mM of KCl, 1.25 mM of MgCl2, 1.25 mM of CaCl2, 0.97 mM of K2HPO4, 0.23 mM of KH2PO4, 5 mM of HEPES and 5 mM of glucose; pH 7.4 (adjusted with KOH)). The residual volume remaining in the wells is 90 μl (possibly between 50 and 125 μl). This washing step removes the free BCECF-AM and results in an intracellular acidification (pHi of 6.3-6.4) due to the removal of the external ammonium ions.
As the equilibrium of the intracellular ammonium with the aqueous ammonia and the protons, by removal of the extracellular ammonium and by the subsequent immediate crossing of the aqueous ammonia across the cell membrane, is disrupted, the washing process results in intracellular protons remaining, which is the cause of the intracellular acidification. This acidification can result finally in the death of the cells if it lasts long enough. It is important here for the washing buffer to be free of sodium (<1 mM), otherwise the extracellular sodium ions would result in an immediate increase in the pHi on account of the activity of the cloned NHE isoforms. It is also important for all the buffers used (loading buffer, washing buffer and regeneration buffer) not to contain any HCO3-ions, otherwise the presence of bicarbonate would result in the activation of bicarbonate-dependent systems that disrupt the pHi regulation, which systems are contained in the LAP-1 parental cell line.
The microtiter plates containing acidified cells are then transferred (up to 20 minutes after the acidification) to the FLIPR. In the FLIPR, the intracellular fluorescent dye is activated with light of a wavelength of 488 nm, which is generated by an argon laser, and the measuring parameters (laser power, illumination time and diaphragm of the […] camera integrated into the FLIPR) are chosen such that the average value of the fluorescent signal per well is between 30,000 and 35,000 relative fluorescence units.
The actual measurement in the FLIPR starts with a photograph being taken by the CCD camera every two seconds under software control. After 10 seconds, the increase in the intracellular pH is initiated by adding 90 μl of regeneration buffer (133.8 mM of NaCl, 4.7 mM of KCl, 1.25 mM of MgCl2, 1.25 mM of CaCl2, 0.97 mM of K2HPO4, 0.23 mM of KH2PO4, 10 mM of HEPES and 5 mM of glucose; pH 7.4 (adjusted with NaOH)) using a 96-well pipette device incorporated into the FLIPR. Some wells, to which is added pure regeneration buffer, serve as positive controls (100% NHE activity). […]
By IC50 is commonly meant the concentration at which inhibition is half-maximal. On to `NC(N)=NC(=O)CC1c2cc(C(F)(F)F)ccc2C(=O)N1CC(F)(F)F` (single isomer, unassigned) [Example 46b], for which the half-maximal inhibitory concentration (IC50) amounted to 0.2 nM. The same measure for `NC(N)=NC(=O)CC1c2ccc(C(F)(F)F)cc2C(=O)N1CC(F)(F)F` (single isomer, unassigned) [Example 47a]: 70 nM; for `NC(N)=NC(=O)CC1c2ccc(C(F)(F)F)cc2C(=O)N1CC(F)(F)F` (single isomer, unassigned) [Example 47b]: 5790 nM; for `NC(N)=NC(=O)CC1c2cc(C(F)(F)F)ccc2C(=O)N1CC(F)(F)F` (single isomer, unassigned) [Example 48, N-{2-[3-Oxo-2-(2,2,2-trifluoro-ethyl)-6-trifluoromethyl-2,3-dihydro-1H-isoindol-1-yl]-acetyl}-guanidine hydrogen fumarate]: 0.2 nM. The same measure for `NC(N)=NC(=O)CC1c2cc(Cl)ccc2C(=O)N1CCC(F)(F)F` (single isomer, unassigned) [Example 49a]: 1 nM. Next, `NC(N)=NC(=O)CC1c2cc(Cl)ccc2C(=O)N1CCC(F)(F)F` (single isomer, unassigned) [Example 49b]: 13 nM. For `NC(N)=NC(=O)CC1c2ccc(Cl)cc2C(=O)N1CCC(F)(F)F` (single isomer, unassigned) [Example 50a], the IC50 came out at 9 nM.

Regarding `NC(N)=NC(=O)CC1c2ccc(Cl)cc2C(=O)N1CCC(F)(F)F` (single isomer, unassigned) [Example 50b], the IC50 stood at 6 nM.

For the compound `NC(N)=NC(=O)CC1c2cc(C(F)(F)F)ccc2C(=O)N1CCC(F)(F)F` (single isomer, unassigned) [Example 51a], the IC50 was 6 nM. On to `NC(N)=NC(=O)CC1c2cc(C(F)(F)F)ccc2C(=O)N1CCC(F)(F)F` (single isomer, unassigned) [Example 51b], for which the IC50 came out at 171 nM. The same measure for `NC(N)=NC(=O)CC1c2ccc(C(F)(F)F)cc2C(=O)N1CCC(F)(F)F` (single isomer, unassigned) [Example 52a]: 50 nM.

For the compound `NC(N)=NC(=O)CC1c2ccc(C(F)(F)F)cc2C(=O)N1CCC(F)(F)F` (single isomer, unassigned) [Example 52b], the 50% inhibitory concentration (IC50) came to 671 nM. As to `NC(N)=NC(=O)CC1c2cc(Cl)ccc2C(=O)N1CCCC(F)(F)F` (single isomer, unassigned) [Example 53a], the 50% inhibitory concentration (IC50) was determined as 83 nM. Next, `NC(N)=NC(=O)CC1c2cc(Cl)ccc2C(=O)N1CCCC(F)(F)F` (single isomer, unassigned) [Example 53b]: 16 nM; `NC(N)=NC(=O)CC1c2ccc(Cl)cc2C(=O)N1CCCC(F)(F)F` (single isomer, unassigned) [Example 54a]: 944 nM; `NC(N)=NC(=O)CC1c2ccc(Cl)cc2C(=O)N1CCCC(F)(F)F` (single isomer, unassigned) [Example 54b]: 48 nM. Next, `NC(N)=NC(=O)CC1c2cc(Cl)ccc2C(=O)N1CC1CC1` (single isomer, unassigned) [Example 55a]: 2 nM; `NC(N)=NC(=O)CC1c2cc(Cl)ccc2C(=O)N1CC1CC1` (single isomer, unassigned) [Example 55b]: 20 nM; `NC(N)=NC(=O)CC1c2ccc(Cl)cc2C(=O)N1CC1CC1` (single isomer, unassigned) [Example 56a]: 28 nM. The same measure for `NC(N)=NC(=O)CC1c2ccc(Cl)cc2C(=O)N1CC1CC1` (single isomer, unassigned) [Example 56b]: 18 nM; for `CC(C)CN1C(=O)c2ccccc2C1CC(=O)N=C(N)N` (single isomer, unassigned; (+)) [Example 4, (+)-N-[2-(2-Isobutyl-3-oxo-2,3-dihydro-1H-isoindol-1-yl)acetyl]guanidine]: 57 nM; for `CN1C(=O)c2ccccc2C1CC(=O)N=C(N)N` (stereo not shown) [Example 1, N-[2-(2-Methyl-3-oxo-2,3-dihydro-1H-isoindol-1-yl)acetyl]guanidine]: 74 nM.

For `CC(C)CN1C(=O)c2ccccc2C1CC(=O)N=C(N)N` (stereo not shown) [Example 2, N-[2-(2-Isobutyl-3-oxo-2,3-dihydro-1H-isoindol-1-yl)acetyl]guanidine], the concentration for half-maximal inhibition (IC50) came to 59 nM.

Take `CC(C)N1C(=O)c2ccccc2C1CC(=O)N=C(N)N` (stereo not shown) [Example 7, N-[2-(2-Isopropyl-3-oxo-2,3-dihydro-1H-isoindol-1-yl)acetyl]guanidine]: the half-maximal inhibitory concentration (IC50) came out at 116 nM. Next, `NC(N)=NC(=O)CC1c2ccccc2C(=O)N1Cc1ccccc1` (stereo not shown) [Example 9, N-[2-(2-Benzyl-3-oxo-2,3-dihydro-1H-isoindol-1-yl)acetyl]guanidine]: 156 nM; `CC(C)CN1C(=O)c2cc(OC(C)C)ccc2C1CC(=O)N=C(N)N` (stereo not shown) [Example 16, N-[2-(2-Isobutyl-5-isopropoxy-3-oxo-2,3-dihydro-1H-isoindol-1-yl)-acetyl]-guanidine]: 251 nM.

As for `CC(C)CN1C(=O)c2cccc(F)c2C1CC(=O)N=C(N)N` (stereo not shown) [Example 17, N-[2-(7-Fluoro-2-isobutyl-3-oxo-2,3-dihydro-1H-isoindol-1-yl)acetyl]guanidine], the IC50 was 43 nM. On to `Cc1cccc2c1C(=O)N(CC(C)C)C2CC(=O)N=C(N)N` (stereo not shown) [Example 20, N-[2-(2-Isobutyl-4-methyl-3-oxo-2,3-dihydro-1H-isoindol-1-yl)-acetyl]-guanidine], for which the 50% inhibitory concentration (IC50) was 18 nM. Next, `NC(N)=NC(=O)CC1c2cc(C(F)(F)F)ccc2C(=O)N1CC(F)(F)F` (stereo not shown) [Example 21, N-{2-[3-Oxo-2-(2,2,2-trifluoro-ethyl)-6-trifluoromethyl-2,3-dihydro-1H-isoindol-1-yl]-acetyl}-quanidine]: 4.9 nM. `N=C(N)NC(=O)CC1c2ccccc2C(=O)N1CC(F)(F)F` (stereo not shown) [Example 22, N-[2-(3-Oxo-2-(2,2,2-trifluoroethyl)-2,3-dihydro-1H-isoindol-1-yl)acetyl]guanidine]: the IC50 was 100 nM. Next, `Cc1ccc2c(c1)C(CC(=O)NC(=N)N)N(CC(C)C)C2=O` (stereo not shown) [Example 35, N-[(2-Isobutyl-6-methyl-3-oxo-2,3-dihydro-1H-isoindol-1-yl)acetyl]guanidine]: 38 nM; `[H]/N=C(\N)NC(=O)CC1c2cc(S(C)(=O)=O)ccc2C(=O)N1CC(F)(F)F` [Example 36, (R)-N-{2-[6-Methanesulfonyl-3-oxo-2-(2,2,2-trifluoro-ethyl)-2,3-dihydro-1H-isoindol-1-yl]-acetyl}-quanidine and (S)-N-{2-[6-Methanesulfonyl-3-oxo-2-(2,2,2-trifluoro-ethyl)-2,3-dihydro-1H-isoindol-1-yl]-acetyl}-quanidine]: 31 nM; `[H]/N=C(\N)NC(=O)CC1c2cc(S(C)(=O)=O)ccc2C(=O)N1CC1CC1` (stereo not shown) [Example 37, N-[2-(2-Cyclopropylmethyl-6-methanesulfonyl-3-oxo-2,3-dihydro-1H-isoindol-1-yl)acetyl]-guanidinium acetate]: 188 nM. On to `[H]/N=C(\N)NC(=O)CC1c2cc(Cl)c(Cl)cc2C(=O)N1CCC(F)(F)F` (stereo not shown) [Example 41a, N-{2-[5,6-Dichloro-3-oxo-2-(3,3,3-trifluoro-propyl)-2,3-dihydro-1H-isoindol-1-yl]-acetyl}-guanidine acetate], for which the IC50 stood at 3 nM.

These data come from patent publication US7078428B2, “Isoindolone derivatives, preparation process and intermediates of this process, their use as medicaments, and pharmaceutical compositions comprising them” (Sanofi-Aventis Deutschland GmbH, priority 2002, dated 2006).
